Measurements reported in patent publication US20050261283A1, “Methods and compositions for the treatment of graft failure” (priority 2002, published 2005).
In brackets after ≈: the same amount, converted by molar mass. Where a name gives a salt, the structure may show the parent alone.

Key:
[1] = test system: cells of porcine origin from a primary explant of porcine carotid artery; test: PDGF induced migration of cells of porcine origin (carotid artery explant), Boyden chamber; format: cell-based; conditions: hPDGF-BB 20 ng/ml; second passage cells; FIG. 13
[2] = test system: human aortic vascular smooth muscle cell (HASOM cells); test: PDGF-BB induced migration of human aortic vascular smooth muscle cells, Boyden chamber; format: cell-based
Protocol: The cells were then cultured in the presence of these agents for forty-eight hours prior to the migration assay. […] Each well contained an insert with a polycarbonate filter having 8 μm pores. In preparation for the migration assays, the membranes were coated with 0.1% gelatin for 8 hours, aspirated, and allowed to dry for 2 hours.
The M-199 media containing 0.5% BSA and 20 ng/ml human PDGF-B (hPDGF-BB) was placed in the bottom Boyden chamber. Cells were incubated at 5% CO2 at 37° C. for twelve hours and the cells lying on the upper surface of the membrane were scraped off. The insert membranes were removed and the cells on the lower surface of each membrane were stained with hematoxylin. Cell migration was then quantified by counting the cells in five random high-power fields on the lower surface of the membrane. All assays were run in triplicate.

In the case of `Cc1ccc(NC(=O)c2ccc(CN3CCN(C)CC3)cc2)cc1Nc1nccc(-c2cccnc2)n1` [Gleevec, imatinib mesylate], the “inhibition of PDGF-B induced migration of porcine cells” value [1] was “inhibited PDGF-B induced migration of theses porcine cells a dose dependent manner” and the “inhibition of PDGF induced migration of HASOM cells” value ([2]; hPDGF-BB 20 ng/ml, 48 h pre-treatment, 12 h migration, FIG. 12) was “potently inhibited PDGF induced migration of HASOM cells in a dose dependent manner”.
`CO[C@H]1C[C@@H]2CC[C@@H](C)[C@@](O)(O2)C(=O)C(=O)N2CCCC[C@H]2C(=O)O[C@H]([C@H](C)C[C@@H]2CC[C@@H](O)[C@H](OC)C2)CC(=O)[C@H](C)/C=C(\C)[C@@H](O)[C@@H](OC)C(=O)[C@H](C)C[C@H](C)/C=C/C=C/C=C/1C` [rapamycin] showed an IC50 ([2]; Homo sapiens, in vitro VSMC migration, read-out: IC50 for blocking VSMC migration) of 1 to 5 ng/mL (≈ 1.09 to 5.47 nM).
